According to US20120003667A1, “ELECTROPHORETIC TAG-BASED IN VITRO ASSAY TO QUANTIFY DIMERIZATION OF P66 AND P51 SUB-UNITS OF HIV-1 REVERSE TRANSCRIPTASE (RT)” (priority 2007, published 2012):
pIC50: −log10 of the molar value.

Experiments:
[1] = target: T1, heterodimerization of p66 and p51 (Human immunodeficiency virus type 1 group M subtype B, UniProt P12497); details: literature comparison values; cited from earlier work
T1 construct: active form of HIV-1 RT is a heterodimer containing two polypeptides, p66 and p51

[2] = target: T2, His-p51/FLAG-p66 RT heterodimer (Human immunodeficiency virus type 1 group M subtype B, UniProt P12497); assay: Microplate eTag assay to monitor p66-p51 RT dimerization, in the presence of drugs; type: binding; details: drug concentration varied from 0 μM to 100 μM; released eTag quantitated; read-out: IC50 (heterodimerization of p66 and p51)
T2 construct: The gene for the 66 kDa subunit of HIV-1 RT; The gene for the 51 kDa subunit of HIV-1 RT; made in house; host or cells: E. coli
Experimental: The assay was performed by first capturing His-tagged p51 on Ni^2+-NTA microplates, and then adding FLAG-tagged p66 to form the heterodimer. To the heterodimer complex was added a solution of eTag covalently linked to FLAG antibodies resulting His-p51/FLAG-p66 RT heterodimer complexed to an eTag immobilized on the microplates. After washing to remove unbound material, the eTag was cleaved by the addition of methylene blue, and the amount of released eTags was measured and quantitated by electrophoretic separation.

| Substance | pIC50 [1] | pIC50 [2] |
| --- | --- | --- |
| calmodulin [CAM] | 5.72 | 5.43 |
| [2′,5′-bis-o-(butyldimethylsilyl)-3′-spiro 5′-(4′-amino-1′,2′-oxothiole-2′,2′-dioxide] [TSAO] | 5.17 | 5.19 |
